In EP3882250B1, “TETRAHYDROPYRANYL AMINO-PYRROLOPYRIMIDINONE FOR USE IN TREATING BTK-MEDIATED DISORDERS” (ArQule, Inc., priority 2015, dated 2017) one finds IC50 data, which are given here for 1 compound.

For experiment [1], the system named is TMD-8 cells. Briefly: Anti-proliferation Assay (MTS), TMD-8 cells. It is filed as cell-based. As to conditions: Homo sapiens, TMD8, treated for 72 hours, MTS cell survival. Here is the method:
(§1) Cell survival is determined by a MTS assay. Briefly, cells (i.e., TMD-8 cells or Rec-1 cells) are plated in a 96-well plate, cultured in complete growth medium, and then treated with various drugs and drug combinations. MTS/PMS is added and incubated, followed by assessment of cell viability using the microplate reader. Data is normalized to untreated controls and analyzed with Microsoft Excel.
(§2) Cell survival was determined by the MTS assay. Briefly, cells (i.e., TMD-8 cells or Rec-1 cells) were plated in a 96-well plate at 2,000-10,000 cells per well, cultured for 24 hours in complete growth medium, and then treated with various drugs and drug combinations for 72 hours. MTS/PMS was added and incubated for 4 hour, followed by assessment of cell viability using the microplate reader (absorbance at 490 nm). Data were normalized to untreated controls and analyzed with Microsoft Excel.

The test system of experiment [2] is Rec-1 cells. Description: Anti-proliferation Assay (MTS), Rec-1 cells. It is filed as cell-based. The conditions noted are these: Homo sapiens, Rec1, treated for 72 hours, MTS cell survival. Here is the method:
as §1, §2

Usually IC50 stands for the concentration needed to halve the response being measured. As to `O=C(c1ccc(Oc2ccccc2)cc1Cl)c1c[nH]c2ncnc(N[C@@H]3CC[C@@H](CO)OC3)c12` [Compound (I), (2-chloro-4-phenoxyphenyl)(4-(((3R,6S)-6-(hydroxymethyl)tetrahydro-2H-pyran-3-yl)amino)-7H-pyrrolo[2,3-d]pyrimidin-5-yl)methanone], the IC50 was determined as 130 ± 60 nM in experiment [1] and 180 ± 70 nM in experiment [2].
